Measured values published in PMC1933452, “Molecular Basis of Resistance to Muramidase and Cationic Antimicrobial Peptide Activity of Lysozyme in Staphylococci” (PLoS Pathogens, 2007).
Where “and” joins values, the source holds several entries; their conditions need not be identical. Equal entries are not always repeated. Where two headings read alike, the source gives them in different places. Where a SMILES comes first, the peptide text is derived from it. Bridges are numbered along the chain shown (N, C = ends). Where no end group is shown, it is not given here. [ ]: non-standard residue; d: D form. The star is where a group is joined. X1 = CC[C@H](C)CCCCC(=O)*; Dab = NCC[C@H](N)C(=O)O

Key:
[1] = system: PG isolated from oatA/graRS double mutant; assay: Turbidometric assay of PG, oatA/graRS mutant; type: biochemical, Staphylococcus aureus; details: PG of oatA/graRS double mutant 0.5 mg/ml, 300 μg lysozyme per ml, 80 mM PBS pH 6.4, 4 h
Protocol: (§1) One liter of BM was inoculated with an overnight culture of the WT SA113 or the mutants. Strains were grown for 12 h with shaking at 37 °C. Cells were centrifuged, washed two times with cold 0.9% NaCl, diluted in 0.9% NaCl, and boiled for 20 min. After the cells were chilled on ice, they were again centrifuged and washed twice with 0.9% NaCl. The cells were disrupted in a mechanical grinding device using glass beads ∅150–212 μm (Sigma-Aldrich) at 4 °C, centrifuged and washed two times with cold H2Obidest, boiled for 30 min in 2% SDS to remove noncovalently bound proteins, and washed four times with H2Obidest. The cell wall fragments were diluted in 0.1 M Tris/HCl (pH 6.8) and incubated with 0.5 mg/ml trypsin for 16 h at 37 °C to degrade cell-bound proteins. After centrifugation and washing with water, the PG was lyophilized.
(§2) For analyzing the susceptibility of PG to lysozyme, we used a modified method turbidometric assay as described by Clarke. The PG of the WT SA113 and the mutants were sonicated and diluted to 0.5 mg in 1 ml of 80 mM PBS (pH 6.4). After the addition of 300 μg lysozyme per ml, the decrease in optical density was monitored at the beginning (0 h) and after 4 h at OD660nm and calculated as percentages.

[2] = system: graRS::erm; assay: MIC assay, graRS mutant; type: cell-based, Staphylococcus aureus; details: for MIC: graRS::erm, serial dilution, BM without glucose with 0.5% xylose, 37 °C, 20–24 h, mean of three to five independent experiments; for Susceptibility of graRS mutant relative to WT: from MIC values
Protocol: (§3) The overnight cultures were diluted in BM with 0.5% xylose to a concentration of 0.5 × 10^6 CFU per ml and aliquoted in 0.5-ml samples, and cationic agents in different concentrations were added.

[3] = system: SA113 (pTXgraRS); assay: MIC assay, WT overexpressing graRS; type: cell-based, Staphylococcus aureus; details: for MIC: SA113 (pTXgraRS), serial dilution, BM without glucose with 0.5% xylose as inductor, 37 °C, 20–24 h, mean of three to five independent experiments
Protocol: as §3

[4] = system: SA113; type: cell-based, Staphylococcus aureus; details: for MIC: SA113, serial dilution, BM without glucose with 0.5% xylose, 37 °C, 20–24 h, mean of three to five independent experiments
Protocol: as §3

[5] = system: oatA::kan/dltA::spc; assay: MIC assay, oatA/dltA double mutant; type: cell-based, Staphylococcus aureus; details: for MIC: oatA::kan/dltA::spc, serial dilution, BM without glucose with 0.5% xylose, 37 °C, 20–24 h, mean of three to five independent experiments
Protocol: as §3

[6] = system: graRS::erm (pTXgraRS); assay: MIC assay, complemented graRS mutant; type: cell-based, Staphylococcus aureus; details: for MIC: graRS::erm (pTXgraRS), serial dilution, BM without glucose with 0.5% xylose as inductor, 37 °C, 20–24 h, mean of three to five independent experiments
Protocol: as §3

[7] = system: oatA::kan; assay: MIC assay, oatA mutant; type: cell-based, Staphylococcus aureus; details: serial dilution, BM without glucose with 0.5% xylose, 37 °C, 20–24 h, mean of three to five independent experiments
Protocol: as §3

[8] = system: WT SA113; assay: Effects of cationic agents on exponential growth, WT; type: cell-based, Staphylococcus aureus; details: WT SA113, BM 37 °C, agent added at OD578nm 1.0; Lys or heat-inactivated Lys 300 μg/ml, LP9 200 μg/ml, PMB 20 μg/ml, Gdm 8 μg/ml
Protocol: (§4) Overnight cultures were diluted to an OD578nm of 0.1 in 50 ml of BM and the cultures were incubated with shaking at 37 °C. OD was determined every hour. Ten milliliters of each culture were transferred into a new 100-ml flask when the cultures reached an OD578nm of nearly 1.0. Then, cationic agents, such as hen egg-white lysozyme and human lysozyme (Sigma-Aldrich, http://www.sigmaaldrich.com/), LP9 (a lysozyme-derived 9-aa peptide, 107R-A-W-V-A-W-R-N-R115–NH2) (EMC, http://www.microcollections.de/), polymyxin B (Sigma-Aldrich), gallidermin (Genmedics, http://www.genmedics.com/), or mutanolysin (Sigma), were added. Lysozyme was inactivated by heating for 1 h at 100 °C and placed on ice. The OD578nm of all cultures was measured hourly up to 7–8 h and after 24 h.

[9] = system: oatA/dltA mutant; assay: Effects of cationic agents on exponential growth, oatA/dltA mutant; type: cell-based, Staphylococcus aureus; details: BM 37 °C, agent added at OD578nm 1.0, Lys 20 μg/ml, LP9 200 μg/ml
Protocol: as §4

[10] = system: oatA::kan/graRS::erm; assay: MIC assay, oatA/graRS double mutant; type: cell-based, Staphylococcus aureus; details: for MIC: oatA::kan/graRS::erm, serial dilution, BM without glucose with 0.5% xylose, 37 °C, 20–24 h, mean of three to five independent experiments
Protocol: as §3

[11] = system: dltA::spc; assay: MIC assay, dltA mutant; type: cell-based, Staphylococcus aureus; details: for MIC: dltA::spc, serial dilution, BM without glucose with 0.5% xylose, 37 °C, 20–24 h, mean of three to five independent experiments
Protocol: as §3

[12] = system: oatA mutant; assay: Effects of cationic agents on exponential growth, oatA mutant; type: cell-based, Staphylococcus aureus; details: BM 37 °C, agent added at OD578nm 1.0, Lys or heat-inactivated Lys 300 μg/ml, LP9 200 μg/ml
Protocol: as §4

[13] = system: PG isolated from graRS mutant; assay: Turbidometric assay of PG, graRS mutant; type: biochemical, Staphylococcus aureus; details: PG of graRS mutant 0.5 mg/ml, 300 μg lysozyme per ml, 80 mM PBS pH 6.4, 4 h
Protocol: as §1, §2

[14] = system: PG isolated from dltA mutant; assay: Turbidometric assay of PG, dltA mutant; type: biochemical, Staphylococcus aureus; details: PG of dltA mutant 0.5 mg/ml, 300 μg lysozyme per ml, 80 mM PBS pH 6.4, 4 h
Protocol: as §1, §2

[15] = system: PG isolated from oatA mutant; assay: Turbidometric assay of PG, oatA mutant; type: biochemical, Staphylococcus aureus; details: PG of oatA mutant 0.5 mg/ml, 300 μg/ml, 80 mM PBS pH 6.4, 4 h
Protocol: as §1, §2

[16] = system: dltA mutant; assay: Effects of cationic agents on exponential growth, dltA mutant; type: cell-based, Staphylococcus aureus; details: LP9 200 μg/ml, PMB 20 μg/ml, Gdm 8 μg/ml; for Susceptibility of growing culture (OD578nm): BM 37 °C, agent added at OD578nm 1.0, Lys or heat-inactivated Lys 300 μg/ml; for Resumption of growth in the presence of the CAMP: up to 24 h
Protocol: as §4

[17] = system: graRS mutant; assay: Effects of cationic agents on exponential growth, graRS mutant; type: cell-based, Staphylococcus aureus; details: PMB 20 μg/ml; for Susceptibility of growing culture (OD578nm) / Resumption of growth in the presence of the CAMP: graRS mutant, Gdm 8 μg/ml; for Susceptibility of growing culture (OD578nm): BM 37 °C, agent added at OD578nm 1.0, Lys or heat-inactivated Lys 300 μg/ml, LP9 200 μg/ml; for Resumption of growth in the presence of the CAMP: up to 24 h
Protocol: as §4

[18] = system: oatA/graRS mutant; assay: Effects of cationic agents on exponential growth, oatA/graRS mutant; type: cell-based, Staphylococcus aureus; details: BM 37 °C, agent added at OD578nm 1.0, Lys 50 μg/ml, heat-inactivated Lys 300 μg/ml, LP9 200 μg/ml
Protocol: as §4

With Lysozyme the “Hydrolysis of isolated PG (decrease in OD660nm)” value [1] was “hydrolysed”, the “Resistance at highest concentration” value ([2]; graRS mutant, at a concentration of 50 mg/ml) was “completely resistant” and the MIC [2] was >50,000 μg/ml. For the same compound, the MIC [3] was >50,000 μg/ml, the MIC ([4]; 0.5 × 10^6 CFU per ml) was >50,000 μg/ml and the “Resistance at highest concentration” value ([4]; WT, at a concentration of 50 mg/ml) was “completely resistant”. The “Sensitivity of oatA/dltA double mutant relative to oatA single mutant” value ([5]; from MIC values) was > 333 fold and 333 fold, the “Sensitivity of oatA/dltA double mutant relative to oatA/graRS double mutant” value ([5]; from MIC values) was 20 fold and the MIC [5] was 30 μg/ml and 2.08 μM. For the same compound, the MIC [6] was >50,000 μg/ml, the MIC [7] was 10,000 μg/ml and 694 μM and the “Susceptibility of growing culture (OD578nm)” value (shortened to “Susceptibility … (OD578nm)”) [8] was “completely lysozyme resistant”. For the same compound, the “Susceptibility … (OD578nm)” value [9] was “stays lysozyme sensitive even after 24 h”, the “Sensitivity of oatA/graRS double mutant relative to oatA mutant” value ([10]; from MIC values) was ~17 fold and the MIC [10] was 600 μg/ml and 41.6 μM. The MIC [11] was 2,000 μg/ml and 138.8 μM, the “Sensitivity of dltA single mutant relative to WT” value ([11]; from MIC values) was “over 25 fold” and the “Sensitivity of dltA single mutant relative to oatA single mutant” value ([11]; from MIC values) was 5 fold. The “Susceptibility … (OD578nm)” value [12] was “only marginally affected”, the “Hydrolysis of isolated PG (decrease in OD660nm)” value [13] was “completely resistant” and the “Hydrolysis of isolated PG (decrease in OD660nm)” value [14] was “not hydrolyzed”. The “Hydrolysis of isolated PG (decrease in OD660nm)” value [15] was “sensitive to the muramidase activity”, the “Susceptibility … (OD578nm)” value [16] was “more sensitive” and the “Susceptibility … (OD578nm)” value [17] was “only marginally affected”. For the same compound, the “Susceptibility … (OD578nm)” value [18] was “highly susceptible”.
For CC[C@H](C)CCCCC(=O)N[C@@H](CCN)C(=O)N[C@H](C(=O)N[C@@H](CCN)C(=O)N[C@H]1CCNC(=O)[C@H]([C@@H](C)O)NC(=O)[C@H](CCN)NC(=O)[C@H](CCN)NC(=O)[C@H](CC(C)C)NC(=O)[C@@H](Cc2ccccc2)NC(=O)[C@H](CCN)NC1=O)[C@@H](C)O [Polymyxin B, polymyxin B] (X1-[Dab]T[Dab][Dab][Dab][dF]L[Dab][Dab]T; lactam 4-C (inferred); N-terminus assumed), the “Susceptibility of graRS mutant relative to WT” value [2] was 17 fold, the MIC [2] was 20 μg/ml and 14.4 μM and the MIC [3] was >500 µg/mL. The “Increase in resistance by overexpression of graRS (pTXgraRS) in the WT” value ([3]; from MIC values) was “approximately 2 fold”, the MIC ([4]; 0.5 × 10^6 CFU per ml) was 350 µg/mL and the MIC [4] was 252.5 µM. The MIC [5] was 10 μg/ml and 7.2 μM, the “Increase in resistance by overexpression of graRS (pTXgraRS) in the graRS mutant” value ([6]; from MIC values) was “approximately 2 fold” and the MIC [6] was >800 µg/mL. For the same compound, the MIC [7] was 350 μg/ml and 252.5 μM, the “Susceptibility … (OD578nm)” value [8] was “much less affected” and the MIC [10] was 25 μg/ml and 18 μM. For the same compound, the MIC [11] was 10 μg/ml and 7.2 μM, the “Susceptibility … (OD578nm)” value [16] was “more susceptible” and the “Resumption of growth in the presence of the CAMP” value (from here on “Resumption of growth”) [16] was “unable to resume growth”. For the same compound, the “Susceptibility … (OD578nm)” value [17] was “immediate growth arrest”, the “Resumption of growth” value [17] was “started to grow after some time” and the “Growth of subculture challenged again” value ([17]; new culture inoculated from 24-h graRS culture treated with polymyxin B) was “no growth retardation”.
In the case of “Heat-inactivated lysozyme: Catalytic inactive lysozyme, inactivated by heating for 1 h at 100 °C”, the “Susceptibility … (OD578nm)” value [8] is reported as “completely insensitive”, the “Susceptibility … (OD578nm)” value [12] is reported as “no activity” and the “Hydrolysis of isolated PG (decrease in OD660nm)” value [15] is reported as “no activity”. For the same compound, the “Susceptibility … (OD578nm)” value [16] was “inhibited”, the “Susceptibility … (OD578nm)” value [17] was “does not affect” and the “Susceptibility … (OD578nm)” value [18] was “able to inhibit the growth”.
With “gallidermin (IASKFLCTPGCAKTGSFNSYCC; cysteine pairing not given here; also: lantibiotic; UniProt P21838 31-52, looked up) [lantibiotic, CAMP (Genmedics)]” the “Susceptibility of graRS mutant relative to WT” value [2] was 4 fold, the MIC [2] was 2.5 μg/ml and 1.14 μM and the MIC [3] was 9 μg/ml and 4.1 μM. For the same compound, the MIC ([4]; 0.5 × 10^6 CFU per ml) was 9 µg/mL, the MIC [4] was 4.1 µM and the MIC [5] was 1.2 μg/ml and 0.55 μM. The MIC [6] was 9 μg/ml and 4.1 μM, the MIC [7] was 9 μg/ml and 4.1 μM and the “Susceptibility … (OD578nm)” value [8] was “inhibited the WT”. For the same compound, the MIC [10] was 3 μg/ml and 1.36 μM, the MIC [11] was 1.2 μg/ml and 0.55 μM and the “Susceptibility … (OD578nm)” value [16] was “more susceptible”. The “Resumption of growth” value [16] was “unable to resume growth”, the “Susceptibility … (OD578nm)” value [17] was “immediate growth arrest” and the “Resumption of growth” value [17] was “started to grow after some time”.
